A word on the MIC: it is the least concentration at which growth counts as inhibited. High values mean weaker potency, low ones greater potency.

Values after ≈ are worked out from the molar mass of the structure shown. Some results are limits rather than exact numbers.

Common to all, as to type: cell-based
One test has as its system E. coli strain MP-4. Kind of test: Broth dilution MIC determination (CLSI) against E. coli strain MP-4. The following applies: Escherichia coli, MP4. The method in brief:
(§1)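 MICs were determined by CLSI standard broth dilution. Values are binned: "+++" ≤4 mg/L, "++" ≥8 and <32 mg/L, "+" ≥32 mg/L.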

The test system of test [1] is K. pneumoniae strain MP-548. Kind of test: Broth dilution MIC determination (CLSI) against K. pneumoniae strain MP-548. The following applies: Klebsiella pneumoniae, MP548. The method in brief:
as §1
In general terms: Dilution methods test growth across graded concentrations, often in twofold steps.

Test [2] deals with P. aeruginosa strain MP-3. As to the kind of experiment: Broth dilution MIC determination (CLSI) against P. aeruginosa strain MP-3. The conditions noted are these: Pseudomonas aeruginosa, MP3. The gist of the method:
as §1

Test [3] concerns A. baumannii strain MP-15. As to the kind of experiment: Broth dilution MIC determination (CLSI) against A. baumannii strain MP-15. The following applies: Acinetobacter baumannii, MP15. The method in brief: as §1
The test system of a further test is S. aureus strain MP-12. Kind of test: Broth dilution MIC determination (CLSI) against S. aureus strain MP-12. The conditions noted are these: Staphylococcus aureus, MP12, strain MP-12. The method in brief: as §1

For the compound `CC[C@H]1OC(=O)C(C)C(=O)[C@H](C)[C@@H](OC2OC(CN(C)CC)CC(N(C)C)C2O)[C@](C)(OC)C[C@@H](C)CN[C@H](C)[C@H]2NC(=O)O[C@@]21C` (some centres unmarked) [Compound 151, 3-Descladinosyl-3-oxo-6-O-methyl-N9a-desmethyl-11,12-dideoxy-12,11-(oxycarbonylimino)-6′-methylethylamino Azithromycin], the MIC in the test with E. coli strain MP-4 was at most 4 µg/mL; in test [1], 8 to 32 µg/mL (≈ 11.9 to 47.7 µM); in test [2], at least 32 µg/mL; in test [3] it was at least 32 µg/mL; against S. aureus strain MP-12 it was at least 32 µg/mL.

For the compound `CC[C@H]1OC(=O)C(C)C(=O)[C@H](C)[C@@H](OC2OC(CN(C)C34CC(C3)C4)CC(N(C)C)C2O)[C@](C)(OC)C[C@@H](C)CN[C@H](C)[C@H]2NC(=O)O[C@@]21C` (some centres unmarked) [Compound 152, 3-Descladinosyl-3-oxo-6-O-methyl-N9a-desmethyl-11,12-dideoxy-12,11-(oxycarbonylimino)-6′-bicyclo[1.1.1]pentanylmethylamino Azithromycin], the MIC was at least 32 µg/mL against E. coli strain MP-4; at least 32 µg/mL in test [1]; at least 32 µg/mL in test [2]; 8 to 32 µg/mL (≈ 11.3 to 45.1 µM) in test [3]; 8 to 32 µg/mL (≈ 11.3 to 45.1 µM) against S. aureus strain MP-12.

In the case of `CC[C@H]1OC(=O)C(C)C(=O)[C@H](C)[C@@H](OC2OC(CN(C)CC3CC3)CC(N(C)C)C2O)[C@](C)(OC)C[C@@H](C)CN[C@H](C)[C@H]2NC(=O)O[C@@]21C` (some centres unmarked) [Compound 153, 3-Descladinosyl-3-oxo-6-O-methyl-N9a-desmethyl-11,12-dideoxy-12,11-(oxycarbonylimino)-6′-methylcyclopropylmethylamino Azithromycin], the MIC against E. coli strain MP-4 was at most 4 µg/mL; in test [1], at least 32 µg/mL; in test [2], at least 32 µg/mL; in test [3], at least 32 µg/mL; in the test with S. aureus strain MP-12, at least 32 µg/mL.

In the case of `CC[C@H]1OC(=O)C(C)C(=O)[C@H](C)[C@@H](OC2OC(CN(C)C(C)C)CC(N(C)C)C2O)[C@](C)(OC)C[C@@H](C)CN[C@H](C)[C@H]2NC(=O)O[C@@]21C` (some centres unmarked) [Compound 154, 3-Desdadinosyl-3-oxo-6-O-methyl-N9a-desmethyl-11,12-dideoxy-12,11-(oxycarbonylimino)-6′-isopropylmethylamino Azithromycin], the minimum inhibitory concentration (MIC) is at most 4 µg/mL in the test on E. coli strain MP-4; 8 to 32 µg/mL (≈ 11.7 to 46.7 µM) in test [1]; at least 32 µg/mL in test [2]; at least 32 µg/mL in test [3]; at least 32 µg/mL in the test on S. aureus strain MP-12.

`CO[C@]1(C)C[C@@H](C)CN[C@H](C)[C@H]2NC(=O)O[C@]2(C)[C@@H](C)OC(=O)C(C)C(=O)[C@H](C)[C@H]1OC1OC(CN(C)C2CCC2)CC(N(C)C)C1O` (some centres unmarked) [Compound 155, 3-Descladinosyl-3-oxo-6-O-methyl-N9a-desmethyl-11,12-dideoxy-12,11-(oxycarbonylimino)-6′-methylcyclobutylamino-13-methyl Azithromycin]: the MIC against E. coli strain MP-4 was at most 4 µg/mL; in test [1], 8 to 32 µg/mL (≈ 11.7 to 46.9 µM); in test [2], at least 32 µg/mL; in test [3], 8 to 32 µg/mL (≈ 11.7 to 46.9 µM); with S. aureus strain MP-12, at least 32 µg/mL.

For `CO[C@]1(C)C[C@@H](C)CN[C@H](C)[C@H]2NC(=O)O[C@]2(C)[C@@H](C)OC(=O)C(C)C(=O)[C@H](C)[C@H]1OC1OC(CN(C)CC2CC2)CC(N(C)C)C1O` (some centres unmarked) [Compound 156, 3-Desdadinosyl-3-oxo-6-O-methyl-N9a-desmethyl-11,12-dideoxy-12,11-(oxycarbonylimino)-6′-methylcyclopropylmethyl-13-methyl Azithromycin], the minimum inhibitory concentration (MIC) (with E. coli strain MP-4; in test [1]; in test [2]; in test [3]; in the test with S. aureus strain MP-12) was at least 32 µg/mL each time.

Consider `CC[C@H]1OC(=O)C(C)C(=O)[C@H](C)[C@@H](OC2OC(CN(C)C3CC3)CC(N(C)C)C2O)[C@](C)(OC)C[C@@H](C)CN(C)[C@H](C)[C@H]2NC(=O)O[C@@]21C` (some centres unmarked) [Compound 157, 3-Descladinosyl-3-oxo-6-O-methyl-11,12-dideoxy-12,11-(oxycarbonylimino)-6′-[N-(methyl)cyclopropylamino]Azithromycin], for which the MIC is at most 4 µg/mL with E. coli strain MP-4; 8 to 32 µg/mL (≈ 11.5 to 45.9 µM) in test [1]; at least 32 µg/mL in test [2]; 8 to 32 µg/mL (≈ 11.5 to 45.9 µM) in test [3]; 8 to 32 µg/mL (≈ 11.5 to 45.9 µM) in the test on S. aureus strain MP-12.

Values taken from patent US11673910B2, “Macrolides with modified desosamine sugars and uses thereof” (Zikani Therapeutics, Inc., priority 2017, dated 2023).
